Measurements from patent publication US6972287B1, “Method of inhibiting amyloid protein aggregation and imaging amyloid deposits” (Pfizer Inc., priority 1999, dated 2005).
Several values for one entry are separate records, joined by “and”; a condition that tells them apart may be missing. Equal values may be shown once.

Tests used:
Aβ(1-40) [1] = biological target: T1, Aβ(1-40) (Homo sapiens, UniProt P05067); experiment: BASST (Beta-Amyloid Self-Seeding, Thioflavin T), inhibitors of self-seeded amyloid fibril growth; format: biochemical; conditions: 30 μM soluble Aβ(1-40), 37° C., 3 to 5 hours, thioflavin T fluorescence; replicate values; letter = synthetic lot; read-out: BASST (IC50 = μM)
T1 construct: […]; purchased Bachem, Torrance, Calif
T1 sequence (P05067 672-711 limits assumed): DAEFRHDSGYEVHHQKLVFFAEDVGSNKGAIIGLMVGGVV
Summary of the method: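 Self-seeded Aβ(1-40) fibril growth was run in 50 mM sodium phosphate pH 7.5, 100 mM NaCl, 0.02% NaN3, 1 M urea. Compounds were tested in 3-fold serial dilutions (top 100 μM final): 10 min on ice, then 3–5 h at 37 °C. Fibrils were read by 5 μM thioflavin T fluorescence (ex 440/em 485 nm).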

Aβ (1-40) peptide = biological target: T2, Aβ (1-40) peptide (Homo sapiens, UniProt P05067); experiment: BAPA (Beta-Amyloid Peptide Aggregation, pH 6.0, filtration); format: biochemical; conditions: Aβ (1-40) 33 μM, pH 6.0, 2 to 4 hours at room temperature; replicate values; letter = synthetic lot
T2 construct: 10 μL 0.5 mg/mL Aβ (1-40) peptide in 20% HFIP
T2 sequence (P05067 672-711 limits assumed): as above
Summary of the method: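 Aggregation of human Aβ (1-40) peptide was measured in an endpoint filtration assay. The peptide was first reduced to monomer with hexafluoroisopropanol (HFIP), then used at 33 μM so it would aggregate at pH 6.0, and incubated for 2 to 4 hours at room temperature. Filter plates were washed with 100 μL phosphate buffer, impregnated with Meltilex, and counted on a Microbeta counter with background correction.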

Aβ (1-42) = biological target: T3, Aβ (1-42) (Homo sapiens, UniProt P05067); experiment: BATYM assay (Aβ (1-42) aggregation, Thioflavin T fluorescence); format: biochemical; conditions: Aβ 1-42 final concentration 100 μM, 37° C., 1 day, letter = synthetic lot
T3 construct: Required Aβ (1-42) (California Peptide) was dried from its hexafluoroisopropanol (HFIP) stock solution; purchased California Peptide
T3 sequence (P05067 672-713 limits assumed): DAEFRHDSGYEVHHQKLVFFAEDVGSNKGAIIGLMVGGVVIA
Summary of the method: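 Aβ (1-42) (100 μM final, PBS pH 7.4 from DMSO) incubated with compound at 37° C. for 1 day. Aggregation read by ThT (30 μM, glycine-NaOH pH 8.5) fluorescence, ex 440/em 485 nm; inhibition as fluorescence reduction corrected for compound-alone signal, IC50 by curve fitting from two experiments in triplicate.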

Aβ(1-40) [2] = biological target: T1, Aβ(1-40); experiment: BASSR (Beta-Amyloid Self-Seeding Radioassay), inhibitors of self-seeded amyloid fibril growth; format: biochemical; conditions: 30 μM soluble Aβ(1-40) + 125I-labeled Aβ(1-40), 37° C., 3 to 5 hours; replicate values; letter = synthetic lot; ppt = precipitate; V-shaped = inhibition followed by precipitation
Summary of the method: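 Self-seeded growth of ^125I-labeled Aβ(1-40) fibrils in 50 mM sodium phosphate pH 7.5, 100 mM NaCl, 0.02% NaN3, 1 M urea; compound (3-fold dilutions from 100 μM final) preincubated 10 min on ice, then 3–5 h at 37° C. Fibrils collected by vacuum filtration on 0.2 μm filters and counted for radioactivity.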

| IC50 (Aβ(1-40) [1]) | melting point [°C] | IC50 (Aβ (1-40) peptide) | IC50 (Aβ (1-42)) | IC50 (Aβ(1-40) [2]) | Compound |
| --- | --- | --- | --- | --- | --- |
| 1 µM and 1.2 µM | 153 to 155 | > 60 µM and 7 µM | 8.52 µM and 7.26 µM and 7.07 µM | 16 µM and 12 µM and 15 µM and 11 µM | O=C(O)c1cc([N+](=O)[O-])ccc1Nc1ccc(CCCc2ccc(Cl)c(Cl)c2)cc1 [Example 15, 2-{4-[3-(3,4-Dichlorophenyl)propyl]phenylanino}-5-nitrobenzoic acid] |
| 6 µM | 150 to 153 | 22 µM | 68.6 µM | 4.2 µM | O=C(O)c1ccccc1Nc1ccc(CCCc2ccc([N+](=O)[O-])cc2)cc1 [Example 20, 2-{4-[3-(4-Nitrophenyl)propyl]phenylamino}benzoic acid] |
| 4 µM | 164 to 167 | 26 µM | 62.7 µM | 3 µM | O=C(O)c1ccccc1Nc1ccc(CCCc2cccc([N+](=O)[O-])c2)cc1 [Example 21, 2-{4-[3-(3-Nitrophenyl)propyl]phenylamino}benzoic acid] |
| 5 µM | 115 to 117 | 27 µM | 42.3 µM | > 100 µM | CN(C)c1cccc(CCCc2ccc(Nc3ccccc3C(=O)O)cc2)c1 [Example 28, 2-{4-[3-(3-Dimethylaminophenyl)propyl]phenylamino}benzoic acid] |
| 4 µM | 133 | 30 µM | 38.1 µM | > 100 µM | CCNc1ccc(CCCc2ccc(Nc3ccccc3C(=O)O)cc2)cc1 [Example 29, 2-{4-[3-(4-Ethylaminophenyl)propyl]phenylamino}benzoic acid] |
| > 100 µM | 182 to 184 | > 10 µM | > 100 µM | > 100 µM | Nc1cccc(CCc2ccc(Nc3ccccc3C(=O)O)cc2)c1 [Example 33, 2-{4-[2-(3-Aminophenyl)ethyl]phenylamino}benzoic acid] |
| > 100 µM | 213 to 215 | 149 µM | > 100 µM | > 100 µM | CC(=O)Nc1cccc(CCc2ccc(Nc3ccccc3C(=O)O)cc2)c1 [Example 36, 2-{4-[2-(3-Acetylaminopheny)ethyl]phenylamino}benzoic acid] |
| 20 µM | 176 to 178 | 21 µM | > 100 µM | > 100 µM | CC(=O)Nc1ccc(CCCc2ccc(Nc3ccccc3C(=O)O)cc2)cc1 [Example 39, 2-{4-[3-(4-Acetylaminophenyl)propyl]phenylamino}benzoic acid] |
| 3 µM | 140 to 145 | 53 µM | > 100 µM | > 100 µM | CC(=O)Nc1cccc(CCCc2ccc(Nc3ccccc3C(=O)O)cc2)c1 [Example 40, 2-{4-[3-(3-Acetylaminophenyl)propyl]phenylamino}benzoic acid] |

Second part, the molecule before the results:

| Compound | IC50 (Aβ(1-40) [1]) | melting point [°C] | IC50 (Aβ (1-40) peptide) | IC50 (Aβ (1-42)) | IC50 (Aβ(1-40) [2]) |
| --- | --- | --- | --- | --- | --- |
| O=C(O)c1cc([N+](=O)[O-])ccc1Nc1ccc(CCCCCc2ccc(Cl)c(Cl)c2)cc1 [Example 13, 2-{4-[5-(3,4-Dichlorophenyl)pentyl]phenylamino}-5-nitrobenzoic acid] | 0.9 µM | 147 to 148 | 6 µM | 6.41 µM | 21 µM and > 100 µM (2×) and 20 µM and 15 µM |
| O=C(O)c1ccccc1Nc1ccc(-c2ccc(Cl)c(Cl)c2)cc1 [Example 18, 2-[4-(3,4-Dichlorophenyl)phenylamino]benzoic acid] | 30 µM and > 100 µM | > 220 | 9 µM and > 40 µM and 53 µM and 12 µM | > 100 µM | > 100 µM |
| Nc1ccc(CCc2ccc(Nc3ccccc3C(=O)O)cc2)cc1 [Example 24] | 20 µM | 198 to 201 | 91 µM | > 100 µM | > 100 µM |
| CCCN(CCC)c1ccc(CCc2ccc(Nc3ccccc3C(=O)O)cc2)cc1.Cl [Example 25, 2-{4-[2-(4-Dipropylaminophenyl)ethyl]phenylamino}benzoic acid monohydrochloride] | 4 µM | 176 to 177 | 47 µM | 21.1 µM | > 100 µM |
| O=C(O)c1ccccc1Nc1ccc(CCc2cccc(N(Cc3ccccc3)Cc3ccccc3)c2)cc1 [Example 31, 2-{4-[2-(3-Dibenzylaminophenyl)ethyl]phenylamino}benzoic acid] | 1 µM | 95.5 to 97.5 | 86 µM | 22.6 µM | > 100 µM |
| CCCN(CCC)c1cccc(CCc2ccc(Nc3ccccc3C(=O)O)cc2)c1.Cl [Example 37, 2-{4-[2-(3-Dipropylaminophenyl)ethyl]phenylamino}benzoic acid monohydrochloride] | 0.8 µM | 189 to 193 | 25 µM | 30.2 µM | > 100 µM |
| CCCCN(CCCC)c1cccc(CCc2ccc(Nc3ccccc3C(=O)O)cc2)c1.Cl [Example 38, 2-{4-[2-(3-Dibutylaminophenyl)ethyl]phenylamino}benzoic acid monohydrochloride] | 3 µM | 175 to 180 | 184 µM | 23.4 µM | 20 µM and 10 µM |
| CCN(CC)c1cccc(CCc2ccc(Nc3ccccc3C(=O)O)cc2)c1.Cl [Example 41, 2-{4-[2-(3-Diethylaminophenyl)ethyl]phenylamino}benzoic acid monohydrochloride] | 5 µM | 166 to 171 | 42 µM | 49.7 µM | > 100 µM |
| Cl.O=C(O)c1ccccc1Nc1ccc(CCc2cccc(N3CCCCC3)c2)cc1 [Example 42, 2-{4-[2-(3-Piperidin-1-ylphenyl)ethyl]phenylamino}benzoic acid monohydrochloride] | 2 µM | 187 to 193 | 30 µM | 55.6 µM | > 100 µM |
| CCCCN1CCCc2cc(C=C3SC(=S)N(CC(=O)O)C3=O)ccc21 [Example 55, {5-[(1-Butyl-1,2,3,4-tetrahydro-6-quinolyl)methylidene]-4-oxo-2-thioxothiazolidin-3-yl}acetic acid] | 2 µM | 222 to 224 | 101 µM | 5.1 µM | 12 µM |
| CCCCN1CCc2cc(C=C3SC(=S)N(CC(=O)O)C3=O)ccc21 [Example 56, {5-[(1-Butyl-2,3-dihydro-1H-indol-5-yl)methylidene]-4-oxo-2-thioxothiazolidin-3-yl}acetic acid] | 3 µM | > 250 | 30 µM | 11.5 µM | > 100 µM |
| Cc1ccc(Nc2ccc(CCCc3ccc(Cl)c(Cl)c3)cc2)c(C(=O)O)c1 [Example 59, 2-{4-[3-(3,4-Dichloro-phenyl)propyl]phenylamino}-5-methyl-benzoic acid] | > 100 µM | 98 to 99 | 3 µM | > 100 µM | > 100 µM |
| CS(=O)(=O)NC(=O)c1ccccc1Nc1ccc(CCCc2ccc(Cl)c(Cl)c2)cc1 [Example 60, N-(2-{4-[3-(3,4-Dichloro-phenyl)-propyl]-phenylamino}-benzoyl)-methanesulfonamide] | 3 µM | 53 to 61 | 8 µM | 40.7 µM | > 100 µM |
